The target in assay [1] is K-Ras^G12C : hSOS1 interaction (Homo sapiens, UniProt Q07889). The assay can be described thus: Biochemical assay 1: K-Ras^G12C interaction assay with hSOS1 (HTRF). The note with it: for IC50: read-out: Assay 1 (KRAS-SOS Interaction) activity expressed as IC50; for inhibition at 20 µM: read-out: Assay 1 (KRAS-SOS Interaction) activity expressed as % inhibition at 20 μM. In kind it is binding.

For assay [2], the target named is human SOS1 (nucleotide exchange of K-Ras^G12C) (Homo sapiens, UniProt Q07889). The assay is described as follows: Biochemical assay 2: K-Ras^G12C activation assay by hSOS1 at high GTP concentration (HTRF). As to conditions: high GTP; for IC50: read-out: Assay 2 (KRAS-Activation by SOS high GTP) activity expressed as IC50; for inhibition at 20 µM: read-out: Assay 2 (KRAS-Activation by SOS high GTP) activity expressed as % inhibition at 20 μM.

Assay [3] deals with human SOS1 (loading of human K-Ras^G12C-GDP with fluorescent GTP-analog) (Homo sapiens, UniProt Q07889). The assay can be described thus: Biochemical assay 3: K-Ras^G12C activation assay by hSOS1 (HTRF). The note with it: no GTP; for IC50: read-out: Assay 3 (KRAS-Activation by SOS no GTP) activity expressed as IC50; for inhibition at 20 µM: read-out: Assay 3 (KRAS-Activation by SOS no GTP) activity expressed as % inhibition at 20 μM.

For 19 molecules, IC50 and inhibition results are on record in patent US20240083857A1, “2-Methyl-Quinazolines” (Bayer Pharma Aktiengesellschaft, priority 2017, published 2024).

For the molecule `COc1cc2nc(C)nc(N[C@H](C)c3cccc(-c4cncc(C)c4)c3)c2cc1OC` [Example 41, 6,7-dimethoxy-2-methyl-N-{(1R)-1-[3-(5-methylpyridin-3-yl)phenyl]ethyl}quinazolin-4-amine], the concentration for half-maximal inhibition (IC50) in assay [1] amounted to 0.972 µM; in assay [2], 1.4 µM; in assay [3], 1.67 µM.

Consider `COc1cc2nc(C)nc(N[C@@H](C)c3ccc(-c4csc5ccccc45)s3)c2cc1OC` (racemic) [Example 154, N-{1-[5-(1-benzothiophen-3-yl)thiophen-2-yl]ethyl}-6,7-dimethoxy-2-methylquinazolin-4-amine], for which the figures for the IC50 in assay [1], in assay [2] and in assay [3] were 7.82 µM, 8.78 µM and 12.9 µM, respectively.

Turning to `COc1cc2nc(C)nc(N[C@@H](C)c3ccc(-c4ccc(N5CCOCC5)cc4)s3)c2cc1OC` (stereo in doubt) [Example 43, 6,7-dimethoxy-2-methyl-N-[1-{5-[4-(morpholin-4-yl)phenyl]thiophen-2-yl}ethyl]quinazolin-4-amine], the inhibition at 20 µM in assay [1] was determined as 30%; in assay [2], 14%; in assay [3], 16%.

Take `COc1cc2nc(C)nc(N[C@H](C)c3cccc(-c4ccc(S(C)(=O)=O)cc4)c3)c2cc1OC` [Example 82, 6,7-dimethoxy-2-methyl-N-{(1R)-1-[4′-(methylsulfonyl)biphenyl-3-yl]ethyl}quinazolin-4-amine]: the IC50 in assay [1] was 0.598 µM; in assay [2], 0.857 µM; in assay [3] it was 1 µM.

Regarding `COc1cc2nc(C)nc(N[C@H](C)c3cccc(-c4ccc5c(c4)CC(=O)N5)c3)c2cc1OC` [Example 57, 5-(3-{(1R)-1-[(6,7-dimethoxy-2-methylquinazolin-4-yl)amino]ethyl}phenyl)-1,3-dihydro-2H-indol-2-one], the IC50 in assay [1] was 0.414 µM; in assay [2], 0.401 µM; in assay [3], 0.629 µM.

For the molecule `COc1cc2nc(C)nc(N[C@H](C)c3cccc(-c4ccc(C(C)(C)C#N)cc4)c3)c2cc1OC` [Example 69, 2-(3′-{(1R)-1-[(6,7-dimethoxy-2-methylquinazolin-4-yl)amino]ethyl}biphenyl-4-yl)-2-methylpropanenitrile], the concentration for half-maximal inhibition (IC50) stood at 3.92 µM in assay [1], 5.41 µM in assay [2] and 9.07 µM in assay [3].

For the molecule `COc1cc2nc(C)nc(N[C@@H](C)c3ccc(-c4ccc(NC(=O)OC(C)(C)C)cc4)s3)c2cc1OC` (stereo in doubt) [Example 159, tert-butyl [4-(5-{1-[(6,7-dimethoxy-2-methylquinazolin-4-yl)amino]ethyl}thiophen-2-yl)phenyl]carbamate], the inhibition at 20 µM in assay [1] turned out to be 43%; in assay [2] it was 27%; in assay [3], 35%.

For the molecule `COc1cc2nc(C)nc(N[C@H](C)c3cccc(-c4ccc5c(c4)CCO5)c3)c2cc1OC` [Example 113, N-{(1R)-1-[3-(2,3-dihydro-1-benzofuran-5-yl)phenyl]ethyl}-6,7-dimethoxy-2-methylquinazolin-4-amine], the IC50 turned out to be 1.35 µM in assay [1], 0.839 µM in assay [2] and 2.1 µM in assay [3].

On to `C/C=C/c1cccc([C@@H](C)Nc2nc(C)nc3cc(OC)c(OC)cc23)c1` [Example 116, 6,7-dimethoxy-2-methyl-N-[(1R)-1-{3-[(1E)-prop-1-en-1-yl]phenyl}ethyl]quinazolin-4-amine], for which the concentration for half-maximal inhibition (IC50) in assay [1] turned out to be 1.08 µM; in assay [2] it was 1.15 µM; in assay [3], 1.72 µM.

For `COc1cc2nc(C)nc(N[C@@H](C)c3ccc(-c4ccc5cc[nH]c5c4)s3)c2cc1OC` (racemic) [Example 54, N-{1-[5-(1H-indol-6-yl)thiophen-2-yl]ethyl}-6,7-dimethoxy-2-methylquinazolin-4-amine], the concentration for half-maximal inhibition (IC50) was 4.19 µM in assay [1], 4.13 µM in assay [2] and 4.07 µM in assay [3].

For `COc1cc2nc(C)nc(N[C@H](C)c3cccc(-c4ccncc4C)c3)c2cc1OC` [Example 108, 6,7-dimethoxy-2-methyl-N-{(1R)-1-[3-(3-methylpyridin-4-yl)phenyl]ethyl}quinazolin-4-amine], the IC50 in assay [1] stood at 0.821 µM; in assay [2] it was 0.901 µM; in assay [3], 1.23 µM.

With `COc1cc2nc(C)nc(N[C@@H](C)c3ccc(-c4ccc5c(c4)OCCN5C)s3)c2cc1OC` (stereo in doubt) [Example 164, 6,7-dimethoxy-2-methyl-N-{1-[5-(4-methyl-3,4-dihydro-2H-1,4-benzoxazin-7-yl)thiophen-2-yl]ethyl}quinazolin-4-amine], the inhibition at 20 µM in assay [1] was determined as 41%; in assay [2] it was 19%; in assay [3], 22%.

Regarding `COc1cc2nc(C)nc(N[C@H](C)c3cccc(/C=C/c4ccccc4)c3)c2cc1OC` [Example 114, 6,7-dimethoxy-2-methyl-N-[(1R)-1-{3-[(E)-2-phenylethenyl]phenyl}ethyl]quinazolin-4-amine], the figures for the IC50 in assay [1], in assay [2] and in assay [3] were 5.28 µM, 2.39 µM and 9.21 µM, respectively.

Consider `COc1cc2nc(C)nc(N[C@H](C)c3cccc(-c4ccccc4OCc4ccccc4)c3)c2cc1OC` [Example 81, N-{(1R)-1-[2′-(benzyloxy)biphenyl-3-yl]ethyl}-6,7-dimethoxy-2-methylquinazolin-4-amine], for which the inhibition at 20 µM in assay [1] was determined as 42%; in assay [2] it was 33%; in assay [3], 24%.

For `COc1cc2nc(C)nc(N[C@H](C)c3cccc(-c4cccc(S(C)(=O)=O)c4)c3)c2cc1OC` [Example 112, 6,7-dimethoxy-2-methyl-N-{(1R)-1-[3′-(methylsulfonyl)biphenyl-3-yl]ethyl}quinazolin-4-amine], the IC50 in assay [1] amounted to 0.696 µM; in assay [2], 0.948 µM; in assay [3], 1.12 µM.

For `COc1cc2nc(C)nc(N[C@H](C)c3cccc(-c4cccc(OC(F)(F)F)c4)c3)c2cc1OC` [Example 84, 6,7-dimethoxy-2-methyl-N-{(1R)-1-[3′-(trifluoromethoxy)biphenyl-3-yl]ethyl}quinazolin-4-amine], the half-inhibitory concentration (IC50) in assay [1] came out at 5.33 µM; in assay [2] it was 7.2 µM; in assay [3], 11 µM.

On to `COc1cc2nc(C)nc(N[C@H](C)c3cccc(-c4cccc(C(F)(F)F)c4)c3)c2cc1OC` [Example 100, 6,7-dimethoxy-2-methyl-N-{(1R)-1-[3′-(trifluoromethyl)biphenyl-3-yl]ethyl}quinazolin-4-amine], for which the IC50 in assay [1] stood at 5.35 µM; in assay [2], 4.51 µM; in assay [3] it was 8.52 µM.

As to `COc1cc2nc(C)nc(N[C@H](C)c3cccc(-c4csc5ccccc45)c3)c2cc1OC` [Example 87, N-{(1R)-1-[3-(1-benzothiophen-3-yl)phenyl]ethyl}-6,7-dimethoxy-2-methylquinazolin-4-amine], the IC50 came to 4.42 µM in assay [1], 3.46 µM in assay [2] and 7.42 µM in assay [3].

Regarding `C/C=C(\C)c1cccc([C@@H](C)Nc2nc(C)nc3cc(OC)c(OC)cc23)c1` [Example 76, N-[(1R)-1-{3-[(2E)-but-2-en-2-yl]phenyl}ethyl]-6,7-dimethoxy-2-methylquinazolin-4-amine], the results for the IC50 in assay [1], in assay [2] and in assay [3] were 0.471 µM, 1.19 µM and 0.952 µM, respectively.
